Key:
heme oxygenase 1 protein = assay: Heme oxygenase 1 induction in RAW264.7 cells (Western blot); type: cell-based; parameters: key: − represents no band observed; increase in the intensity of the band is represented as follows:+−<+<++; increase in the intensity of the band is represented as follows:+−<+<++; increase in the intensity of the band is represented as follows:+−<+<++; settings: positive control, 5 μl of 3 mM solution in dimethyl sulfoxide per 5 ml well; 15 hours
Experimental: RAW264.7 cells (ATCC TIB 71) were suspended in Dulbecco's modified Eagle's medium (Bio Whittaker, 12-604F) containing 10% fetal calf serum (Gibco) at a concentration of 3×10^5 cells/ml. 5 ml of the suspension was added to each well of a 6-well microtiter plate and the plate was incubated at 37° C. overnight in the presence of 5% CO2. 50 μl of a solution containing agarobiose or agarohexaose in Referential Example 1 at a concentration of 20 mM, 10 mM or 5 mM in water was added to the well. The plate was incubated for 15 hours. A positive control for heme oxygenase 1 induction in which 5 μl of 3 mM solution of 15-deoxy-Δ12,14 prostaglandin J2 (Cayman Chemical, 18570) in dimethyl sulfoxide was added, and a negative control in which water was added were provided. The cells were recovered by detaching the cells from the plate using a scraper and suspended in 0.1 M tris-HCl buffer (pH 7.5) containing 0.05 mM pepstatin A (Sigma, P5318), 0.2 mM leupeptin (Sigma, L2884), 1 mM phenylmethylsulfonyl fluoride (Nacalai Tesque, 273-27), 10 mm ethylenediaminetetraacetic acid disodium salt and 0.1% Triton X-100. A supernatant obtained by centrifuging the suspension after freezing and thawing was used as a protein fraction. The content of protein in the protein fraction was determined using Micro BCA Protein Assay Reagent (a product of Pierce sold by Takara Shuzo, P7411). A sample from the protein fraction prepared as described above was mixed with an equal volume of 0.125 M tris-hydrochloride buffer (pH 6.8) containing 4% sodium lauryl sulfate (SDS), 2% 2-mercaptoethanol, 0.001% Bromophenol Blue and 20% glycerol. After treatment at 100° C. for 5 minutes, a portion corresponding to 10 μg of protein was loaded on 12.5% SDS-polyacrylamide gel and electrophoresed at a constant current of 20 mA. After electrophoresis, the gel was transferred to a PVDF membrane (Millipore, IPVH000 10) at a constant voltage of 15 V for 25 minutes using a blotting buffer (containing 48 mM tris, 39 mM glycine, 20% methanol and 0.0375% SDS) and Trans-Blot SD Cell Semi-Dry blotting apparatus (Bio-Rad) according to the attached protocol. After transferring, the PVDF membrane was blocked in a solution of Block Ace (Dainippon Pharmaceutical, UK-B25) at 4° C. overnight. After blocking, the membrane washed three times in phosphate buffered saline containing 0.1% Tween 20 for 15 minutes with gentle shaking. The membrane was reacted in phosphate buffered saline containing 10% Block Ace, 0.1% Tween 20 and 200 ng/ml of anti-heme oxygenase 1 antibody (N-19; Santa Cruz, sc-7696) at room temperature for 1 hour with gentle shaking, and then washed three times in phosphate buffered saline containing 0.1% Tween 20 for 15 minutes with gentle shaking. The membrane was reacted in phosphate buffered saline containing 10% Block Ace, 0.1% Tween 20 and 0.1% peroxidase-labeled rabbit anti-goat IgG (H+L) antibody (Zymed, 61-1620) at room temperature for 1 hour with gentle shaking, and then washed five times in phosphate buffered saline containing 0.1% Tween 20 for 15 minutes with gentle shaking. The PVDF membrane was stained using Western Blot Chemiluminescence Reagent Plus (a product of NEN Life Science Products sold by Daiichi Pure Chemicals, NEL103) according to the attached protocol and exposed to an X-ray film (Kodak, CAT165 1454). After exposure, the film was developed using FPM800 (Fuji Film).
The intensity of the band depended on the concentration of agarobiose or agarohexaose. In the table, the intensity of the band for heme oxygenase 1 protein is expressed by the mark+. Specifically, − represents no band observed, and increase in the intensity of the band is represented as follows:+−<+<++.

α-glucosidase = α-glucosidase inhibition with p-nitrophenyl-α-D-glucopyranoside; type: biochemical, S. cerevisiae
Experimental: (1) An α-glucosidase activity was measured by allowing α-glucosidase to act on p-nitrophenyl-α-D-glucopyranoside (a chromogenic substrate) and calorimetrically quantifying 4-nitrophenol released by hydrolysis.
10 μl of α-glucosidase solution [40 mU/ml, derived from S. cerevisiae, Sigma, dissolved in 10 mM phosphate buffer (pH 7.2 at 37° C.)] and 10 μl of a solution containing a test sample dissolved in 10 mM phosphate buffer (pH 7.2 at 37° C.) were mixed. 80 μl of a 1.5 mg/ml substrate solution [Sigma, dissolved in 10 mM phosphate buffer (pH 7.2 at 37° C.)] was added thereto to initiate the reaction. After reacting at 37° C. for 40 minutes, the absorbance at 410 nm was measured using Shimadzu uv2200. The remaining activity therein was calculated defining the activity observed without the addition of test sample as 100%.
Agarobiose, agarotetraose, agarohexaose and agarooctaose used as test samples were those prepared in Referential Example 1. Commercially available products of anhydrogalactose (Funakoshi), neoagarobiose (Sigma), neoagarotetraose (Funakoshi) and neoagarohexaose (Funakoshi) were used.

RAW264.7 cells = assay: Prostaglandin E2 generation by crude enzyme fraction of RAW264.7 cells pre-treated with sample and LPS; type: cell-based; settings: cells treated with 200 μl of 10 mM sample per 20 ml, 5 hours before LPS
Experimental: (1) RAW264.7 cells (ATCC TIB 71) were suspended in Dulbecco's modified Eagle's medium (Bio Whittaker, 12-604F) containing 10% fetal calf serum (Gibco) at a concentration of 1×10^6 cells/ml. 20 ml of the suspension was added to a 10-cm Petri dish and the dish was incubated at 37° C. overnight in the presence of 5% CO2. 200 μl of a solution containing agarohexaose or DGE (obtained in Example 15-(2) below) at a concentration of 10 mM in water was added to the dish. The dish was incubated for 5 hours. 200 μl of a solution containing lipopolysaccharide (LPS, Sigma, L-2012) at a concentration of 100 μg/ml in water was added thereto. The dish was incubated for additional 12 hours. As a control, 200 μL of water was added in place of the sample. The cells were recovered by detaching the cells from the plate using a scraper and suspended in 0.1 M tris buffer (pH 8.0) containing 1 μg/ml pepstatin A (Sigma, P5318), 1 μg/ml leupeptin (Sigma, L2884) and 1 mM phenylmethylsulfonyl fluoride (Nacalai Tesque, 273-27). The cell membrane was destroyed by sonication. A supernatant collected by centrifugation was used as a crude enzyme fraction. The content of protein in the crude enzyme fraction was determined using Micro BCA Protein Assay Reagent (a product of Pierce sold by Takara Shuzo, P7411). 2.5 μL of 200 mM aqueous solution of glutathione (Nacalai Tesque, 170-50), 2.5 μL of a suspension containing L-adrenaline (Nacalai Tesque, 010-04) at a concentration of 200 mM in water, and 1 μL of 3 mM solution of arachidonic acid (Cayman, 90010.1) or 1 μL of 100 μg/mL solution of prostaglandin H2 (Cayman, 17020) were added to 100 μL of the sample from the crude enzyme fraction prepared as described above. The mixture was reacted at 37° C. for 30 minutes. The reaction was stopped by heating at 100° C. for 2 minutes. The content of prostaglandin E2 in the reaction mixture was measured using Prostaglandin E2 ELISA Kit (Neogen, 404110).

[1] = test system: enzymes involved in the synthesis of prostaglandin E2 from arachidonic acid; assay: Prostaglandin E2 generation from arachidonic acid, sample added directly to crude enzyme fraction; type: biochemical; settings: 1 μL of 100 mM agarobiose, 100 mM agarohexaose, 10 mM DGE or 13 mM nimesulide added to 100 μL crude enzyme fraction; FIG. 15
Experimental: 2.5 μL of 200 mM aqueous solution of glutathione, 2.5 μL of a suspension containing L-adrenaline at a concentration of 200 mM in water, and 1 μL of 100 mM aqueous solution of agarobiose, 100 mM aqueous solution of agarohexaose or 10 mM aqueous solution of DGE as a sample were added to 100 μL of the control sample from the crude enzyme fraction prepared in Example 15. 1 μL of water was added as a negative control. 1 μL of 13 mM nimesulide (Cayman, 70640) solution was added as a positive control. 1 μL of 3 mM arachidonic acid solution was then added to start the reaction. The mixture was reacted at 37° C. for 5 minutes. The reaction was stopped by heating at 100° C. for 2 minutes. The content of prostaglandin E2 in the reaction mixture was measured using Prostaglandin E2 ELISA Kit.

Molecule	Intensity of band for heme oxygenase 1 protein (heme oxygenase 1 protein)	Activity of inhibiting α-glucosidase (% remaining activity) (α-glucosidase; 5 μM)	Activity of inhibiting α-glucosidase (% remaining activity) (α-glucosidase; 50 μM)	Activity of inhibiting α-glucosidase (% remaining activity) (α-glucosidase; 500 μM)	Activity of inhibiting α-glucosidase (% remaining activity) (α-glucosidase; 1000 μM)	Activity of inhibiting α-glucosidase (% remaining activity) (α-glucosidase; 5000 μM)	production of prostaglandin E2, arachidonic acid added (RAW264.7 cells; FIG. 13)	production of prostaglandin E2, prostaglandin H2 added (RAW264.7 cells; FIG. 14)	production of prostaglandin E2 from arachidonic acid [1]
CCCCC/C=C/C=C1/C(=O)C=C[C@@H]1C/C=C\CCCC(=O)O [15-deoxy-Δ12,14 prostaglandin J2, reference compound]	+								
OC1O[C@@H]2CO[C@@H]([C@H]2O)[C@H]1O (stereo partly drawn) [Anhydrogalactose, 3,6-anhydrogalactopyranose]		100%	100%	100%	100%	100%			
O=C1C=CC(CO)OC1O [DGE, L-glycero-1,5-epoxy-1αβ, 6-dihydroxy-cis-hex-3-en-2-one]							suppressed as compared with the control	suppressed as compared with the control	not suppressed
OC[C@H]1OC(O)[C@H](O)[C@@H](O[C@@H]2O[C@H]3CO[C@@H]([C@@H]2O)[C@@H]3O)[C@H]1O (stereo partly drawn) [Neoagarobiose, neoagarobiose, reference compound]		100%	100%	100%	100%	100%			
OC[C@H]1O[C@@H](O)[C@H](O)[C@@H](O[C@@H]2O[C@H]3CO[C@@H]([C@@H]2O)[C@@H]3O[C@@H]2O[C@H](CO)[C@H](O)[C@H](O[C@@H]3O[C@H]4CO[C@@H]([C@@H]3O)[C@@H]4O[C@@H]3O[C@H](CO)[C@H](O)[C@H](O[C@@H]4O[C@H]5CO[C@@H]([C@@H]4O)[C@@H]5O)[C@H]3O)[C@H]2O)[C@H]1O [Neoagarohexaose, neoagarohexaose, reference compound]		100%	100%	93%	71%	8%			
OC[C@H]1O[C@@H](O)[C@H](O)[C@@H](O[C@@H]2O[C@H]3CO[C@@H]([C@@H]2O)[C@@H]3O[C@@H]2O[C@H](CO)[C@H](O)[C@H](O[C@@H]3O[C@H]4CO[C@@H]([C@@H]3O)[C@@H]4O)[C@H]2O)[C@H]1O [Neoagarotetraose, neoagarotetraose, reference compound]		100%	93%	89%	76%	42%			
CS(=O)(=O)Nc1ccc([N+](=O)[O-])cc1Oc1ccccc1 [nimesulide, reference compound]									suppressed
agarooctaose		91%	90%	32%	26%	11%			
